What all share (assay): DTP human tumour cell line panel, 48 h
Assay [1] relates to SNB-75.
Assay [2] has as its system SK-MEL-5.
Assay [3] deals with MDA-MB-435.
Assay [4] deals with HOP-62.
In assay [5] the test system is NCI-H460.
Assay [6] relates to MOLT-4.
The test system of assay [7] is SN12C.
For assay [8], the system named is COLO 205.
In assay [9] the test system is BT-549.
The test system of assay [10] is Hs-578T.
Assay [11] has as its system HT-29.
Assay [12] deals with NCI-H226.
The test system of assay [13] is A498.
Assay [14] deals with SF-295.
The test system of assay [15] is 786-0.
The test system of assay [16] is HCT-116.
Assay [17] has as its system Malme-3M.
Assay [18] relates to SF-539.
The subject of assay [19] is LOX IMVI.

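Results reflect a 48-hour exposure of cells in 96-well plates to compound at five concentrations. Abbreviation: GI50, concentration required for 50% inhibition of growth.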 The source made the active and inactive calls. No stated cut-off is given here; in the data, active = GI50 up to about 1.1 µM and inactive = higher. A value given as a limit tells only on which side of the number the result lay.

On to `CC1=C(O)C(O)=C(C2=C(O)C(O)=C(C)C(=O)C2=O)C(=O)C1=O`, for which the GI50 in assay [1] is 76.2 µM (inactive); in [2] it was 27.2 µM (inactive); in [3], 37.8 µM (inactive); in assay [4], 44 µM (inactive); in assay [5], 40.6 µM (inactive); in assay [6], 98.2 µM (inactive). Besides, the GI50 in [7] was 45 µM (inactive); in [8], 40.7 µM (inactive); in assay [9], 31 µM (inactive); in assay [10], 36.7 µM (inactive); in assay [11] it was 59.3 µM (inactive); in [12], 35.2 µM (inactive). The GI50 was 31 µM (inactive) in assay [13]; 31.3 µM (inactive) in assay [14]; 41.7 µM (inactive) in [15]; 46.7 µM (inactive) in assay [16]; 20.8 µM (inactive) in [17]; 33 µM (inactive) in assay [18]. Besides, the GI50 in assay [19] was 30.6 µM (inactive).

Consider `O=c1[nH]c(=O)n(COCCO)c2ccsc12`, for which the GI50 in [1], in assay [2], in assay [3], in assay [4], in [5] and in assay [6] was > 100 µM (inactive) each time. Further, the GI50 in [7], in assay [8], in [9], in assay [10], in assay [11] and in [12] was > 100 µM (inactive) each time. The GI50 in assay [13], in [14], in assay [15], in [16], in assay [17] and in [18] was > 100 µM (inactive) in each case. The GI50 in assay [19] was > 100 µM (inactive).

Regarding `COC(=O)c1c(C)cccc1C1CN=NC12Cc1cc(C)cc(C)c1C2=O` (stereo not given), the GI50 was 27 µM (inactive) in [1]; 19.2 µM (inactive) in [2]; 37.2 µM (inactive) in assay [3]; 44 µM (inactive) in assay [4]; 32.1 µM (inactive) in assay [5]; 32.1 µM (inactive) in assay [6]. For the same compound, the GI50 in assay [7] is 41.8 µM (inactive); in assay [8], 17.2 µM (inactive); in assay [9], 29.7 µM (inactive); in assay [10] it was 73.1 µM (inactive); in assay [11], 21.5 µM (inactive); in assay [12] it was 58.5 µM (inactive). The GI50 was 24.9 µM (inactive) in assay [13]; 35.1 µM (inactive) in assay [14]; 42.7 µM (inactive) in assay [15]; 27.9 µM (inactive) in assay [16]; 26.2 µM (inactive) in assay [17]; 41.3 µM (inactive) in assay [18]. The GI50 in assay [19] was 17 µM (inactive).

Turning to `NC1=CN2c3ccccc3N(CC(=O)N3CCOCC3)C2C=C1` (stereo not given), the GI50 in [1], in assay [2], in [3], in assay [4], in assay [5] and in assay [6] was > 100 µM (inactive) in each case. Further, the GI50 in [7], in [8], in assay [9], in assay [10], in assay [11] and in assay [12] was > 100 µM (inactive) in each case. Besides, the GI50 in assay [13] is 52.1 µM (inactive); in [14], > 100 µM (inactive); in assay [15] it was > 100 µM (inactive); in [16], > 100 µM (inactive); in [17], > 100 µM (inactive); in assay [18] it was > 100 µM (inactive). For the same compound, the GI50 in assay [19] was > 100 µM (inactive).

For `c1ccc2c(c1)ccn1ccc3c4ccccc4nc-3c21`, the GI50 is 0.647 µM (active) in [1]; 0.454 µM (active) in assay [2]; 0.362 µM (active) in assay [3]; 0.411 µM (active) in assay [4]; 0.262 µM (active) in assay [5]; 0.0759 µM (active) in assay [6]. Further, the GI50 in assay [7] is 0.285 µM (active); in [8], 0.222 µM (active); in assay [9] it was 1.43 µM (inactive); in [10] it was 1.23 µM (inactive); in assay [11], 0.11 µM (active); in assay [12] it was 0.31 µM (active). Also, the 50% growth inhibitory concentration (GI50) was 0.0527 µM (active) in [13]; 0.426 µM (active) in assay [14]; 0.178 µM (active) in [15]; 0.0935 µM (active) in assay [16]; 0.644 µM (active) in [17]; 0.369 µM (active) in assay [18]. Further, the GI50 in assay [19] was 0.366 µM (active).

Take `COc1cc(Nc2nc3cc(C(F)(F)F)ccc3nc2C(=O)O)cc(OC)c1OC`: the GI50 in assay [1] was 10.6 µM (inactive); in [2], 49 µM (inactive); in [3] it was 45.6 µM (inactive); in [4], 44.3 µM (inactive); in assay [5], 58.1 µM (inactive); in [6], 39.7 µM (inactive). The GI50 in assay [7] was 51.2 µM (inactive); in assay [8], 45.5 µM (inactive); in assay [9], 34.9 µM (inactive); in [10], 31.7 µM (inactive); in assay [11], 49.7 µM (inactive); in assay [12] it was 32.9 µM (inactive). For the same compound, the GI50 was 77.8 µM (inactive) in [13]; 27.2 µM (inactive) in assay [14]; 52.8 µM (inactive) in assay [15]; 32.7 µM (inactive) in [16]; 54.1 µM (inactive) in assay [17]; 43.6 µM (inactive) in assay [18]. Moreover, the GI50 in [19] is 32.1 µM (inactive).

In the case of `O=C1NC(=O)C(F)(n2cc(F)c(=O)[nH]c2=O)C(O)N1` (stereo not given), the GI50 in assay [1], in assay [2], in assay [3], in assay [4], in assay [5] and in assay [6] was > 10 µM (inactive) throughout. The GI50 in assay [7], in assay [8], in assay [9], in assay [10], in assay [11] and in [12] was > 10 µM (inactive) each time. In addition, the GI50 in [13], in assay [14], in assay [15], in assay [16], in assay [17] and in assay [18] was > 10 µM (inactive) in each case. In addition, in assay [19], the GI50 was > 10 µM (inactive).

For the compound `C=CCN(c1cc(OCc2ccccc2)c2[nH]cc(C)c2c1)S(C)(=O)=O`, the GI50 in assay [1] was 19.8 µM (inactive); in assay [2], 52.4 µM (inactive); in [3], 72.1 µM (inactive); in [4] it was 39 µM (inactive); in assay [5] it was 76.2 µM (inactive); in assay [6], 33.5 µM (inactive). The GI50 in assay [7] was 51.3 µM (inactive); in assay [8], > 100 µM (inactive); in assay [9], > 100 µM (inactive); in assay [10], 45.8 µM (inactive); in assay [11], 60.8 µM (inactive); in [12], 28.7 µM (inactive). The GI50 is 29.2 µM (inactive) in [13]; 31.5 µM (inactive) in assay [14]; 33.8 µM (inactive) in assay [15]; 66.4 µM (inactive) in [16]; 27.5 µM (inactive) in [17]; 56.2 µM (inactive) in assay [18]. For the same compound, in assay [19], the GI50 was > 100 µM (inactive).

For `CC(C)(C)OC(=O)NCCCNC1(c2cc3ccccc3s2)CCCCC1`, the GI50 in [1] was 15.6 µM (inactive); in assay [2], 13.9 µM (inactive); in assay [3] it was 14.7 µM (inactive); in assay [4], 14.4 µM (inactive); in assay [5] it was 14.3 µM (inactive); in assay [6], 12.5 µM (inactive). Further, the GI50 in assay [7] is 15.3 µM (inactive); in assay [8] it was 12.3 µM (inactive); in assay [9] it was 13.6 µM (inactive); in assay [10], 19.4 µM (inactive); in assay [11] it was 3.15 µM (inactive); in assay [12] it was 29 µM (inactive). In addition, the GI50 in assay [13] is 15.6 µM (inactive); in assay [14], 14.8 µM (inactive); in [15] it was 14.9 µM (inactive); in assay [16], 12 µM (inactive); in assay [17], 15.9 µM (inactive); in assay [18] it was 18.4 µM (inactive). The GI50 in [19] is 16.8 µM (inactive).

For the compound `CC(C)CC(NC(O)[BH2-][N+](C)(C)C)C(=O)NC(Cc1ccccc1)C(=O)N[C@H]1c2ccsc2/C(=N/O)[C@H]1O` (stereo not given in full), the GI50 in assay [1], in assay [2], in assay [3], in assay [4], in [5] and in [6] was > 100 µM (inactive) in each case. The GI50 in [7], in assay [8], in assay [9], in assay [10], in [11] and in [12] was > 100 µM (inactive) each time. Also, the GI50 in assay [13], in [14], in assay [15], in [16], in assay [17] and in assay [18] was > 100 µM (inactive) throughout. For the same compound, the GI50 in assay [19] is > 100 µM (inactive).

Values taken from ChEMBL document CHEMBL1201862, “PubChem BioAssay data set” (2004).
